Test [1] can be described thus: In-vitro removal of tooth stains / teeth whitening (L*a*b*). Further details: species or system human. To be noted: 1M in prototype whitening mouthwash base (Table 7); teeth soaked one hour.
In test [2] the test system is 3-day old biofilm of artificial mouth consortium of bacteria (A. naeslundii, S. oralis, V. parvula, L. casei, F. nucleatum) and S. mutans. The experiment in a line: In vitro removal of a 3-day old biofilm (optical density reduction). Format: cell-based. To be noted: for Percent Biofilm Removal (BMIM Cationic Series): […] BMIM-based ionic liquids in base prototype mouth rinse of Table 1.

In test [3] the test system is A. viscosus. The experiment in a line: Minimum inhibitory concentration. The class given is cell-based. To be noted: Actinomyces viscosus; 24 hours incubation, optical density at 610 nm.
In test [4] the test system is A. viscosus. Nature of the test: Growth inhibition of A. viscosus (optical density over time). The class given is cell-based. As for the experimental part:
DMIM chloride was incorporated into a prototype mouth rinse as illustrated in Table 9. […] The growth inhibition was measured as a change in optical density over time.

Test [5] deals with A. viscosus. Nature of the test: Short Interval Kill Test (SIKT). Format: cell-based. To be noted: 0.3, 0.6 and 1 wt % in prototype mouth rinse of Table 9. The source says: SIKT determines the kill effect of a test article at a predetermined exposure time. […] The reaction was neutralized after 30 seconds by adding a neutralizing broth. The reaction mixture was further diluted and plated on MCA (Microbial Count Agar) plates for viable bacterial count.

In the next test the test system is Dental plaque samples. The experiment in a line: Dissolution of plaque (visual pellet after centrifugation). To be noted: water-insoluble plaque, ionic liquid added, vortex mixed at room temperature, centrifuged at 13,000 g.
Setting [6] is: […] ionic liquid in base prototype mouth rinse of Table 1, 15 minutes, relative to water.
Where [7] appears, read: direct comparison between EMIM and BMIM with different anions.

“Also recorded” adds a separate entry of the source. Where two headings read alike, the source gives them in different places. Where only a bound is given, the exact number is not on record here.

In test [1], “1-ethyl-3-methylimidazolium ethyl sulfate [EMIM Ethyl SO4]” returned a ΔE of 4.41, a ΔL of 3.40 and a ΔW of −2.99. In test [2], the “Percent Removal of a 3-day Oral Biofilm” value amounted to 48.1%.
`CC(=O)[O-].CCn1cc[n+](C)c1` [EMIM OAc, 1-ethyl-3-methylimidazolium acetate]: the “Percent Removal of a 3-day Oral Biofilm” value in test [2] (setting [6]) is 52.1%. In addition, the “Percent Biofilm Removed (EMIM vs BMIM comparison)” value in test [2] (setting [7]) worked out at 52.1%.
Consider `CCn1cc[n+](C)c1.[Cl-]` [EMIM Cl, 1-ethyl-3-methylimidazolium chloride], for which, in test [2], the “Percent Biofilm Removed (EMIM vs BMIM comparison)” value amounted to 44.3% and the “Percent Removal of a 3-day Oral Biofilm” value was found to be 44.3%.
With `CCn1cc[n+](C)c1.Cc1ccc(S(=O)(=O)[O-])cc1` [EMIM Tosylate, 1-ethyl-3-methylimidazolium tosylate], in test [2] (setting [6]), the “Percent Removal of a 3-day Oral Biofilm” value amounted to 59.5%.
With `CCCCn1cc[n+](C)c1.[Cl-]` [BMIM Cl, 1-butyl-3-methylimidazolium chloride], in test [2], the “Percent Biofilm Removal (BMIM Cationic Series)” value (“Percent Biofilm Removal” for short) is recorded as 43.8%. The “Percent Removal of a 3-day Oral Biofilm” value in test [2] (setting [6]) stood at 43.8%. Moreover, in test [2] (setting [7]), the “Percent Biofilm Removed (EMIM vs BMIM comparison)” value is recorded as 43.8%.
In general, MIC refers to the least concentration at which growth counts as inhibited. In turn, `CCCCCCCCCCn1cc[n+](C)c1.[Cl-]` [DMIM Cl, 1-decyl-3-methylimidazolium chloride] had an MIC with A. viscosus [3] of 125 µg/mL. The “growth inhibition of A. viscosus” value with A. viscosus [4] (0.312 wt % in prototype mouth rinse) is on record as “Growth inhibition of A.viscosus is maintained”; in the test with A. viscosus [4] (1 wt % in prototype mouth rinse (Table 9), versus mouthwash containing cetylpyridinium chloride), “greater growth inhibition of A. viscosus than a mouthwash containing cetylpyridinium chloride”. Further, the “time to kill A. viscosus” value in the test with A. viscosus [5] was at most 30 s. Also, the “Percent Removal of a 3-day Oral Biofilm” value in test [2] (setting [6]) is reported as 57.3%. In test [2] (comment on Tables 2 and 6, listed as DMIM chloride), the “biofilm removal, comparison in words” value is “significantly more effective in removing biofilm than EMIM chloride and BMIM chloride; also recorded: most effective in removing biofilm”. Moreover, the “Percent Biofilm Removed (Other Ionic Liquids)” value in test [2] (protocol of Example 2) was 57.3%.
In the case of `CC(=O)[O-].CCCCn1cc[n+](C)c1` [BMIM OAc, 1-butyl-3-methylimidazolium acetate], the “Percent Biofilm Removal” value in test [2] is 55.8%. Further, the “Percent Removal of a 3-day Oral Biofilm” value in test [2] (setting [6]) was found to be 55.9%. Further, the “Percent Biofilm Removed (EMIM vs BMIM comparison)” value in test [2] (setting [7]) is on record as 55.8%.
“tris(2-hydroxyethyl)methylammonium sulfate [MTEOA MeSO4]”: in test [2], the “Percent Biofilm Removed (Other Ionic Liquids)” value stood at 52.8% and the “Percent Removal of a 3-day Oral Biofilm” value is listed as 52.8%.
Turning to `CCCCn1cc[n+](C)c1.[Br-]` [BMIM Br, 1-butyl-3-methylimidazolium bromide], in test [2], the “Percent Biofilm Removal” value is given as 48.0%. Moreover, in test [2] (setting [6]), the “Percent Removal of a 3-day Oral Biofilm” value was 48.0%. Besides, the “Percent Biofilm Removed (EMIM vs BMIM comparison)” value in test [2] (setting [7]) was 48.0%.
“1,2,3-trimethylimidazolium methyl sulfate [TMIM MeSO4]”: in test [2], the “Percent Biofilm Removed (Other Ionic Liquids)” value is 51.8% and the “Percent Removal of a 3-day Oral Biofilm” value is reported as 51.8%.
As to “1-ethyl-3-methylimidazolium diethyl phosphate [EMIM diethyl PO4]”, the “Percent Removal of a 3-day Oral Biofilm” value in test [2] (setting [6]) was found to be 52.7%.
As to “1-butyl-3-methylimidazolium octyl sulfate [BMIM Octyl SO4]”, in test [2], the “Percent Biofilm Removal” value stood at 58.6%. For the same compound, the “Percent Removal of a 3-day Oral Biofilm” value in test [2] (setting [6]) is 58.6%.
Regarding `CCn1cc[n+](C)c1.[Br-]` [EMIM Br, 1-ethyl-3-methylimidazolium bromide], the “plaque dissolution (size of the plaque pellet)” value in the test on Dental plaque samples is on record as “size of the plaque pellet is reduced”. The “Percent Removal of a 3-day Oral Biofilm” value in test [2] (setting [6]) came to 48.6%. For the same compound, the “Percent Biofilm Removed (EMIM vs BMIM comparison)” value in test [2] (setting [7]) is recorded as 48.6%.
“1-butyl-3-methylimidazolium methyl sulfate [BMIM MeSO4]”: in test [2], the “Percent Biofilm Removal” value is 53.9%. Also, the “Percent Removal of a 3-day Oral Biofilm” value in test [2] (setting [6]) was determined as 53.9%.
As to `C=CCn1cc[n+](C)c1.[Cl-]` [AMIM Cl, 1-allyl-3-methylimidazolium chloride], in test [2], the “Percent Biofilm Removed (Other Ionic Liquids)” value is recorded as 44.8%; the “Percent Removal of a 3-day Oral Biofilm” value was 44.8%; the “biofilm removal, comparison in words” value is given as “effective in removing biofilm”.
Regarding `COS(=O)(=O)[O-].Cc1cc[n+](C)n1C` [MMMPz MeSO4, 1,2,3-trimethylpyrazolium (MMMPZ) methyl sulfate], in test [2] (setting [6]), the “Percent Removal of a 3-day Oral Biofilm” value is 57.8%. Also, in test [2] (protocol of Example 2), the “Percent Biofilm Removed (Other Ionic Liquids)” value was 57.9%.

The values are drawn from patent US20150328116A1, “Oral Care Composition Containing Ionic Liquids” (COLGATE-PALMOLIVE COMPANY, priority 2012, published 2015).
